Laboratory results reported in patent publication US11178874B2, “Articles comprising antioxidizing agents and bacteriostatic agents, and production processes thereof” (BENVIC SAS, priority 2016, dated 2021).

System: microorganisms usually present in the environment
Test: Counting of microorganisms on a growth plate after incubation (bacteriostatic effect of solutions)
Type: cell-based
Conditions: for cfu/plate: control 597 cfu; for Reduction % observed: vs control 597 cfu
Protocol: The counting of microorganisms was carried out on a growth plate, after the incubation period (as regards the type of microorganisms, they are microorganisms usually present in the environment). […] Then, the bacteriostatic effect was evaluated of:
a solution of selenium phloroglucinol (20 ppm of selenium, i.e. corresponding to 0.002% by weight);
three solutions of zinc PCA, with a concentration of zinc of 10 ppm, 20 ppm and 30 ppm respectively (i.e. respectively corresponding to 0.001%, 0.002% and 0.003% by weight).
In order to evaluate the synergic effect between zinc and antioxidizing agent, the tests indicated above were repeated, using three solutions separately, respectively containing: selenium 20 ppm+zinc 10 ppm; selenium 20 ppm+zinc 20 ppm; selenium 20 ppm+zinc 30 ppm.

O=C1CC[C@@H](C(=O)[O-])N1.O=C1CC[C@@H](C(=O)[O-])N1.[Zn+2] [Zinc]
cfu/plate (solution 10 ppm): 571 cfu/plate
Reduction % observed (solution 10 ppm): 5.1%
cfu/plate (solution 20 ppm): 550 cfu/plate
Reduction % observed (solution 20 ppm): 6.0%
cfu/plate (solution 30 ppm): 491 cfu/plate
Reduction % observed (solution 30 ppm): 17.1%
